The record followed here is ChEMBL document CHEMBL3217682, “Discovery of highly potent antifungal triazoles by structure-based lead fusion” (2011).

Converted amounts (≈) assume the structure as drawn.

Holding throughout (type): functional
Experiment [1] deals with Candida albicans. The experiment is described as follows: Antifungal activity against Candida albicans assessed as turbidity after 24 hrs by serial dilution method.
In experiment [2] the test system is Cryptococcus neoformans. The experiment can be described thus: Antifungal activity against Cryptococcus neoformans assessed as turbidity after 72 hrs by serial dilution method.
Experiment [3] relates to Candida tropicalis. The experiment is described as follows: Antifungal activity against Candida tropicalis assessed as turbidity after 24 hrs by serial dilution method.
The subject of experiment [4] is Candida parapsilosis. The experiment is described as follows: Antifungal activity against Candida parapsilosis assessed as turbidity after 24 hrs by serial dilution method. To be noted: Lodderomyces parapsilosis.
Experiment [5] relates to Kluyveromyces marxianus. The experiment is described as follows: Antifungal activity against Candida kefyr assessed as turbidity after 24 hrs by serial dilution method.
In experiment [6] the test system is Trichophyton rubrum. The experiment is described as follows: Antifungal activity against Trichophyton rubrum assessed as turbidity after 24 to 72 hrs by serial dilution method.
For experiment [7], the system named is Aspergillus fumigatus. The experiment can be described thus: Antifungal activity against Aspergillus fumigatus assessed as turbidity after 7 days by serial dilution method. The conditions noted are these: 168 h.
In experiment [8] the test system is Candida tropicalis. The experiment is described as follows: Ratio of fluconazole MIC80 to compound MIC80 for Candida tropicalis.
Experiment [9] concerns Candida parapsilosis. The experiment can be described thus: Ratio of fluconazole MIC80 to compound MIC80 for Candida parapsilosis.
Experiment [10] deals with Kluyveromyces marxianus. The experiment is described as follows: Ratio of fluconazole MIC80 to compound MIC80 for Candida kefyr.

As usually defined, the MIC80 is an inhibitory concentration at the 80% level, which refers to growth in some studies and to a panel of isolates in others.

`CN(CC(O)(Cn1cncn1)c1ccc(F)cc1F)C1CCN(Cc2ccccc2)CC1` (stereo not drawn): the MIC80 was determined as 0.57 µM (≈ 0.252 µg/mL) in experiment [1]; 2.26 µM (≈ 0.998 µg/mL) in experiment [2]; 2.26 µM (≈ 0.998 µg/mL) in [3]; 0.57 µM (≈ 0.252 µg/mL) in experiment [4]; 2.26 µM (≈ 0.998 µg/mL) in experiment [5]; 2.26 µM (≈ 0.998 µg/mL) in [6]. The MIC80 in experiment [7] came out at 145 µM (≈ 64 µg/mL).
Turning to `OC(CN1CCC(OCc2ccccc2)CC1)(Cn1cncn1)c1ccc(F)cc1F` (stereo not drawn), the MIC80 in experiment [1] was 0.01 µM (≈ 0.00428 µg/mL); in [2], 0.04 µM (≈ 0.0171 µg/mL); in experiment [3] it was 0.04 µM (≈ 0.0171 µg/mL); in experiment [4], 0.04 µM (≈ 0.0171 µg/mL); in experiment [5] it was 0.15 µM (≈ 0.0643 µg/mL); in experiment [6] it was 0.15 µM (≈ 0.0643 µg/mL). In experiment [7], the MIC80 came to 2.33 µM (≈ 0.998 µg/mL). Also, the Ratio in experiment [8], in [9] and in [10] was 82 in each case.
`OC(CN1CCC(OCc2ccccc2Cl)CC1)(Cn1cncn1)c1ccc(F)cc1F` (stereo not drawn): the MIC80 in experiment [1] stood at 0.03 µM (≈ 0.0139 µg/mL); in experiment [2], 0.03 µM (≈ 0.0139 µg/mL); in [3], 0.14 µM (≈ 0.0648 µg/mL); in experiment [4], 0.03 µM (≈ 0.0139 µg/mL); in experiment [5], 0.54 µM (≈ 0.25 µg/mL); in experiment [6] it was 0.14 µM (≈ 0.0648 µg/mL). In addition, the MIC80 in experiment [7] was found to be 2.16 µM (≈ 1 µg/mL).
For `OC(CN1CCC(OCc2ccc(Cl)cc2Cl)CC1)(Cn1cncn1)c1ccc(F)cc1F` (stereo not drawn), the MIC80 amounted to 0.13 µM (≈ 0.0647 µg/mL) in experiment [1]; 0.03 µM (≈ 0.0149 µg/mL) in experiment [2]; 0.13 µM (≈ 0.0647 µg/mL) in experiment [3]; 0.03 µM (≈ 0.0149 µg/mL) in experiment [4]; 0.5 µM (≈ 0.249 µg/mL) in experiment [5]; 0.13 µM (≈ 0.0647 µg/mL) in [6]. Besides, the MIC80 in experiment [7] stood at 2.01 µM (≈ 1 µg/mL).
`OC(CN1CCC(OCc2ccc(Cl)c(Cl)c2)CC1)(Cn1cncn1)c1ccc(F)cc1F` (stereo not drawn): the MIC80 in [1] came to 0.13 µM (≈ 0.0647 µg/mL); in experiment [2], 0.03 µM (≈ 0.0149 µg/mL); in experiment [3], 0.13 µM (≈ 0.0647 µg/mL); in experiment [4], 0.03 µM (≈ 0.0149 µg/mL); in experiment [5], 0.5 µM (≈ 0.249 µg/mL); in experiment [6], 0.03 µM (≈ 0.0149 µg/mL). Also, in [7], the MIC80 is 2.01 µM (≈ 1 µg/mL).
Consider `OC(CN1CCC(OCc2cccc(Cl)c2)CC1)(Cn1cncn1)c1ccc(F)cc1F` (stereo not drawn), for which the MIC80 in experiment [1] came to 0.14 µM (≈ 0.0648 µg/mL); in [2], 0.03 µM (≈ 0.0139 µg/mL); in experiment [3], 0.14 µM (≈ 0.0648 µg/mL); in experiment [4] it was 0.03 µM (≈ 0.0139 µg/mL); in experiment [5], 0.54 µM (≈ 0.25 µg/mL); in experiment [6] it was 0.03 µM (≈ 0.0139 µg/mL). For the same compound, the MIC80 in [7] was determined as 2.16 µM (≈ 1 µg/mL).
`N#Cc1ccc(COC2CCN(CC(O)(Cn3cncn3)c3ccc(F)cc3F)CC2)cc1` (stereo not drawn): the MIC80 stood at 0.03 µM (≈ 0.0136 µg/mL) in experiment [1]; 0.03 µM (≈ 0.0136 µg/mL) in [2]; 0.14 µM (≈ 0.0635 µg/mL) in [3]; 0.01 µM (≈ 0.00453 µg/mL) in [4]; 0.55 µM (≈ 0.249 µg/mL) in experiment [5]; 0.03 µM (≈ 0.0136 µg/mL) in experiment [6]. The MIC80 in experiment [7] was 0.55 µM (≈ 0.249 µg/mL).
For the compound `OC(CN1CCC(OCc2cccc(Br)c2)CC1)(Cn1cncn1)c1ccc(F)cc1F` (stereo not drawn), the MIC80 in experiment [1] was found to be 0.01 µM (≈ 0.00507 µg/mL); in experiment [2] it was 0.12 µM (≈ 0.0609 µg/mL); in experiment [3], 0.12 µM (≈ 0.0609 µg/mL); in experiment [4] it was 0.12 µM (≈ 0.0609 µg/mL); in experiment [5] it was 0.49 µM (≈ 0.249 µg/mL); in experiment [6], 0.12 µM (≈ 0.0609 µg/mL). The MIC80 in experiment [7] turned out to be 1.97 µM (≈ 1 µg/mL). The Ratio in [8], in experiment [9] and in experiment [10] was 82 throughout.
`OC(CN1CCC(OCc2ccccc2F)CC1)(Cn1cncn1)c1ccc(F)cc1F` (stereo not drawn): the MIC80 in experiment [1] was 0.01 µM (≈ 0.00446 µg/mL); in experiment [2], 0.03 µM (≈ 0.0134 µg/mL); in experiment [3], 0.03 µM (≈ 0.0134 µg/mL); in experiment [4], 0.03 µM (≈ 0.0134 µg/mL); in experiment [5], 0.56 µM (≈ 0.25 µg/mL); in [6] it was 0.14 µM (≈ 0.0625 µg/mL). In addition, the MIC80 in [7] turned out to be 2.24 µM (≈ 1 µg/mL). Further, the Ratio in [8], in experiment [9] and in [10] was 82 in each case.
As for `OC(CN1CCC(OCc2ccc(F)cc2)CC1)(Cn1cncn1)c1ccc(F)cc1F` (stereo not drawn), the MIC80 was found to be 0.14 µM (≈ 0.0625 µg/mL) in experiment [1]; 0.03 µM (≈ 0.0134 µg/mL) in experiment [2]; 0.03 µM (≈ 0.0134 µg/mL) in [3]; 0.03 µM (≈ 0.0134 µg/mL) in experiment [4]; 0.56 µM (≈ 0.25 µg/mL) in experiment [5]; 0.03 µM (≈ 0.0134 µg/mL) in experiment [6]. In [7], the MIC80 was determined as 2.24 µM (≈ 1 µg/mL).
As to `CN(CCCCOc1ccccc1)CC(O)(Cn1cncn1)c1ccc(F)cc1F` (stereo not drawn), the MIC80 stood at 0.04 µM (≈ 0.0167 µg/mL) in [1]; 0.15 µM (≈ 0.0625 µg/mL) in [2]; 0.04 µM (≈ 0.0167 µg/mL) in experiment [3]; 0.15 µM (≈ 0.0625 µg/mL) in [4]; 0.6 µM (≈ 0.25 µg/mL) in [5]; 0.6 µM (≈ 0.25 µg/mL) in experiment [6]. The MIC80 in experiment [7] is above 154 µM.
`OC(Cn1cncn1)(Cn1cncn1)c1ccc(F)cc1F` [FLUCONAZOLE]: the MIC80 was 0.82 µM (≈ 0.251 µg/mL) in [1]; 0.2 µM (≈ 0.0613 µg/mL) in experiment [2]; 3.26 µM (≈ 0.998 µg/mL) in [3]; 0.82 µM (≈ 0.251 µg/mL) in experiment [4]; 3.26 µM (≈ 0.998 µg/mL) in experiment [5]; 3.26 µM (≈ 0.998 µg/mL) in experiment [6]. Further, the MIC80 in experiment [7] is above 209 µM.
